Test results taken from patent US5120641A (Daiichi Pure Chemicals Co., Ltd., priority 1989, dated 1992).
“Also recorded” adds a separate entry of the source. Like-named read-outs stand apart in the source and are kept apart here.

What was measured:
[1] = molecular target: T1, serotonin uptake sites ([^3 H]6-nitroquipazine binding, rat brain membranes) (Rattus norvegicus, UniProt P31652); test: Inhibition of [^3 H]6-nitroquipazine binding by several drugs
T1 construct: from tissue; host or cells: rat brain minus cerebellum, pons and medulla oblongata; washed membrane homogenate
T1 sequence (P31652 whole entry): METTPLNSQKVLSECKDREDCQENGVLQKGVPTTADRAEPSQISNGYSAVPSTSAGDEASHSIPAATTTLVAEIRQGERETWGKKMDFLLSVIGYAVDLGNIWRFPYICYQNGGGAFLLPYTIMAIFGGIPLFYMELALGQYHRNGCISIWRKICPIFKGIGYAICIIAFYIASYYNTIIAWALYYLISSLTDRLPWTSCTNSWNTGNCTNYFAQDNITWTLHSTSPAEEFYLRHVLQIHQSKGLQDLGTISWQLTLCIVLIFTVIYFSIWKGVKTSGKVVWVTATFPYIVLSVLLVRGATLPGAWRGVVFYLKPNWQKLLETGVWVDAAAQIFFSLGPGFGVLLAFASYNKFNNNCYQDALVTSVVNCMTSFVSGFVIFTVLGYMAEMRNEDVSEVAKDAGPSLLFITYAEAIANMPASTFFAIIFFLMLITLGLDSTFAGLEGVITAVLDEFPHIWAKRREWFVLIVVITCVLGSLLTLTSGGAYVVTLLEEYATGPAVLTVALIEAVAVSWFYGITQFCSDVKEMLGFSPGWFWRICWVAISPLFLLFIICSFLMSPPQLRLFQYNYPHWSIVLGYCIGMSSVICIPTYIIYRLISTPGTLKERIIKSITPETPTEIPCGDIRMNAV
Experimental: (§1) Rats were killed by decapitation and the brains (minus cerebellum, pons medulla and oblongata) were rapidly removed. The brain tissue was homogenized in 50 volumes of ice-cold buffer (50 mM Tris-HCl, 120 mM NaCl, 5 mM KCl, pH 7.4) with a Kinematica Polytron homogenizer at setting 5 for 30 seconds. The homogenate was centrifuged at 48,000×g for 10 minutes. The resulting pellet was resuspended in 50 volumes of ice-cold buffer and recentrifuged. The final pellet was resuspended in the same 50 volumes of buffer.
(§2) Aliquots of membrane suspension were incubated with [^3 H]6-nitroquipazine (30-1,200 pM) at 22° C. for 2 hours for the equilibrium saturation. After the addition of 4 ml of ice-cold buffer the homogenates were rapidly filtered through Whatman GF/C filters pretreated with 0.05% polyethleneimine. The filters were washed with ice-cold buffer (3×5 ml). The radioactivity trapped by the filters was determined by a liquid scintillation counter.
Ten different concentrations of the drugs were used for each determination. Aliquots of membrane suspension were incubated with [^3 H]6-nitroquipazine at 22° C. for 2 hours. The specific binding of [^3 H]6-nitroquipazine was determined as described in Example 2.
Drug IC50 values were defined by means of the iterative non-linear least-squares method.

[2] = molecular target: T2, serotonin uptake sites (rat brain membranes) (Rattus norvegicus, UniProt P31652); test: [^3 H]6-Nitroquipazine saturation binding to rat brain membranes (Scatchard analysis)
T2 construct: from tissue; host or cells: rat brain minus cerebellum, pons and medulla oblongata; washed membrane homogenate
T2 sequence (P31652 whole entry): as above
Experimental: as §1, §2

[3] = molecular target: T3, serotonin uptake sites (rat cerebral cortical membranes) (Rattus norvegicus, UniProt P31652); test: [^3 H]6-nitroquipazine binding to cerebral cortical membranes after serotonin neuronal lesions with p-chloroamphetamine; conditions: for Bmax / Kd: cerebral cortex, mean ± S.E.M.
T3 construct: The cerebral cortex of rat brain was rapidly dissected; from tissue; host or cells: rat cerebral cortex membranes (p-chloroamphetamine-treated rats)
T3 sequence (P31652 whole entry): as above
Experimental: as §2
(§3) Rats were injected i.p. three times (24 hours interval) with p-chloroamphetamine (2.5 mg/kg), and were decapitated 7 days after final injection. The cerebral cortex of rat brain was rapidly dissected, and [^3 H]6-nitroquipazine binding to cerebral cortical membranes was examined as described previously.

[4] = molecular target: serotonin uptake sites (rat brain regions) (Rattus norvegicus, UniProt P31652); test: Regional distribution of [^3 H]6-nitroquipazine binding in rat brain
Chain of serotonin uptake sites (rat brain regions) (P31652 whole entry): as above
Experimental: as §2
Rats were killed by decapitation and the brains were dissected (cerebral cortex, striatum, hippocampus, hypothalamus, midbrain, cerebellum, pons medulla and oblongata) on ice. [^3 H]6-Nitroquipazine binding was estimated as described previously.

rat cerebral cortex = test: Serotonin and 5-hydroxyindoleacetic acid content in cerebral cortex of p-chloroamphetamine lesioned rats; type: in vivo
Experimental: as §3

[5] = […] [^3 H]6-nitroquipazine, 22° C., 2 hours

Structure (SMILES): O=[N+]([O-])c1ccc2nc(N3CCNCC3)ccc2c1 [6-Nitroquipazine, 6-nitro-2-piperazinylquinoline]
- Ki [1, 5]: low nanomolar ranges
- Ki ([1]; read-out: Ki): 0.128 nM

Structure (SMILES): O=[N+]([O-])c1ccc2nc(N3CCNCC3)ccc2c1 [[^3 H]6-nitroquipazine, Tritium-labeled 6-nitro-2-piperazinylquinoline]
- binding to rat brain membranes ([2]; FIG. 1): bound with high affinity to rat brain membranes in a saturable and reversible fashion
- specific binding as share of total binding ([2]; at equilibrium, 110 pM [^3 H]6-nitroquipazine, non-specific: 1 μM paroxetine): 95%
- potency compared with [^3 H]imipramine and [^3 H]paroxetine ([2]; no comparative data given): more potent than [^3 H]imipramine and [^3 H]paroxetine
- Kd ([2]; rat brain membranes, 22° C., 2 hours, 30-1,200 pM radioligand, Scatchard analysis, read-out: apparent equilibrium dissociation constant (Kd)): 0.093 nM
- maximal number of binding sites (Bmax) ([2]; rat brain membranes, 22° C., 2 hours, Scatchard analysis): 832 fmol/mg protein
- Bmax ([3]; control rats): 616.0 ± 64.4 fmole/mg protein
- Kd ([3]; control rats): 0.141 nM
- Bmax ([3]; rats treated with p-chloroamphetamine (2.5 mg/kg i.p. x3), ***P < 0.001 vs control): 170.5 ± 44.8 fmole/mg protein
- Kd ([3]; rats treated with p-chloroamphetamine (2.5 mg/kg i.p. x3), *P < 0.01 vs control): 0.108 ± 0.01 nM
- Bmax ([4]; Cerebellum): 91.2 ± 4.0 fmole/mg protein
- Bmax ([4]; Cortex): 565.6 ± 28.3 fmole/mg protein
- Bmax ([4]; Hippocampus): 612.2 ± 35.4 fmole/mg protein
- Bmax ([4]; Hypothalamus): 1211.8 ± 33.2 fmole/mg protein
- Bmax ([4]; Medulla oblongata): 598.2 ± 25.6 fmole/mg protein
- Bmax ([4]; Midbrain): 1107.8 ± 30.2 fmole/mg protein
- Bmax ([4]; Striatum): 807.4 ± 41.5 fmole/mg protein
- specific binding by brain region ([4]; rat brain regions): highest in the hypothalamus and midbrain; also recorded: moderately high in the striatum, hippocampus, medulla oblongata and cerebral cortex; also recorded: lowest in the cerebellum

Structure (SMILES): c1ccc2c(CCC3CCNCC3)c[nH]c2c1 [Indalpine]
- Ki [1, 5]: low nanomolar ranges
- Ki ([1]; read-out: Ki): 1.93 nM

Structure (SMILES): CC(N)Cc1ccc(Cl)cc1 (centres unmarked) [p-chloroamphetamine]
- decrease of [^3 H]6-nitroquipazine binding to cortical membranes of lesioned rats compared to controls ([3]; p-chloroamphetamine 2.5 mg/kg i.p. three times, 7 days after final injection): 72%
- Kd change in lesioned rats ([3]; p-chloroamphetamine 2.5 mg/kg i.p. three times, compared to controls): slightly decreased
- endogenous serotonin levels and [^3 H]6-nitroquipazine binding (rat cerebral cortex; destruction of serotonin neuron terminals by p-chloroamphetamine): decreases in endogenous serotonin levels and [^3 H]6-nitroquipazine binding
- content of 5-hydroxyindoleacetic acid in the cerebral cortex (rat cerebral cortex; lesioned rats, p-chloroamphetamine 2.5 mg/kg i.p. three times, control 0.2123±0.038): 0.0541±0.008 ng/mg tissue
- content of serotonin in the cerebral cortex (rat cerebral cortex; lesioned rats, p-chloroamphetamine 2.5 mg/kg i.p. three times, control 0.3362±0.037): 0.129±0.037 ng/mg tissue
